Reference: patent US8415469B2, “Compounds and methods for kinase modulation, and indications therefor” (Plexxikon Inc., priority 2005, dated 2013)
Each block holds one compound with its values, some of them ahead of it.

Legend:
Type in all cases: biochemical
[1] = target: T1, Kit (Homo sapiens, UniProt P10721); test: AlphaScreen kinase assay, Kit; conditions: read-out: IC50, activity toward kinase Kit
T1 construct: P1332.N6 BI PTP KIT M552-K948-X COD; His6 (N); made in house; host or cells: E. coli (PTP1B co-expressed)

[2] = target: T2, Ret (Homo sapiens, UniProt P07949); test: AlphaScreen kinase assay, Ret; conditions: read-out: IC50, activity toward kinase Ret
T2 construct: P1378.pET-SF BI-PTP RET H661-R1012 HIS; made in house
T2 sequence (P07949 with tags, fused parts or gaps): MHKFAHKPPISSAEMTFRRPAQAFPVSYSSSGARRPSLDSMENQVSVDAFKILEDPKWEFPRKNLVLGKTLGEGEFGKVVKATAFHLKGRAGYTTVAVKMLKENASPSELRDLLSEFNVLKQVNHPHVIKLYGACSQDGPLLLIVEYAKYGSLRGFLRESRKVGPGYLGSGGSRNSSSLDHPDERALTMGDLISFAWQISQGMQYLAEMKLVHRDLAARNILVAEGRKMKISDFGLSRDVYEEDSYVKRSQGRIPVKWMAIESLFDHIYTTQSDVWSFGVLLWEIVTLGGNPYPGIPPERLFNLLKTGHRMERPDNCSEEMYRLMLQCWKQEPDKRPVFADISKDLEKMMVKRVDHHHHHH

[3] = target: MAP4K4 (Homo sapiens, UniProt O95819); test: AlphaScreen kinase assay, MAP4K4; conditions: read-out: IC50, activity toward kinase MAP4K4
[4] = target: T3, Stk6 (Homo sapiens, UniProt O14965); test: Z'-Lyte FRET kinase assay (Invitrogen), Stk6; conditions: read-out: IC50, activity toward kinase Stk6
T3 construct: purchased Invitrogen (Carlsbad, Calif.), screening service
T3 sequence (O14965 1-403): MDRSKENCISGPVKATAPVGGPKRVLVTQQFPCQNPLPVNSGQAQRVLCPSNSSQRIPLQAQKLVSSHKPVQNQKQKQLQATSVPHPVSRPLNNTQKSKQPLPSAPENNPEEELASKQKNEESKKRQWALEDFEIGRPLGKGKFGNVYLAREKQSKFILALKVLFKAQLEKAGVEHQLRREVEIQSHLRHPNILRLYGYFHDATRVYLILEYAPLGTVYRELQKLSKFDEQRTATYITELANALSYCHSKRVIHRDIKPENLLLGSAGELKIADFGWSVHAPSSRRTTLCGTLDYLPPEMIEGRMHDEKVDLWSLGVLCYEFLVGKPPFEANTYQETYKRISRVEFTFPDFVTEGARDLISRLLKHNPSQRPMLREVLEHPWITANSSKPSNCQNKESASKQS

[5] = target: T4, PKC theta (Homo sapiens, UniProt Q04759); test: Z'-Lyte FRET kinase assay (Invitrogen), PKC theta; conditions: read-out: IC50, activity toward kinase PKC theta
T4 construct: purchased Invitrogen (Carlsbad, Calif.), screening service
Text: The effect of potential modulators of kinase activity can be measured in a variety of different assays known in the art. For example, direct radiometric, indirect FRET or AlphaScreen assays may be used to assess the level of phosphorylation of a substrate in the presence of test compounds in order to determine the inhibitory affect of the compound on the kinase. Invitrogen (Carlsbad, Calif.) uses a FRET based assay for Btk, EGFR, EphB2, Flt3, lrak4, Kdr, MAP2K1, MAPKAPK2, PDGFRB, PKC theta, Stk6 and Yes. For these assays, compounds of the invention were screened by Invitrogen using Z′-Lyte™ kinase assay.
Briefly, the Invitrogen kinase assay involves use of a specific peptide substrate optimized for each kinase, containing a fluorophore at each end that make up the FRET pair. The peptide sensitivity to proteolytic cleavage depends on phosphorylation of the peptide. Non-phosphorylated peptide is cleaved by a protease while peptide phosphorylated by the kinase is not cleaved. Cleavage of the peptide disrupts the FRET between the donor (coumarin) and acceptor (fluorescein) fluorophores, resulting in an increase in the ratio of donor emission to acceptor emission. The emission ratio of coumarin to fluorescein is used to assess the reaction progress. The extent of phosphorylation is determined from the emission ratio, which is low when the kinase is active (phosphorylated peptide is not cleaved, FRET pair connected) or higher for inhibited kinase (non-phosphorylated peptide is cleaved, FRET pair separated). Thus, the assay involves a kinase reaction in the presence of varying concentrations of a given compound, a development reaction with site specific protease, and detection of the fluorescent emission ratio of coumarin and fluorscein. […] Reaction conditions for each kinase are determined to provide optimal reaction times, incubation temperature, kinase and ATP concentrations. Test samples are made up in 1× kinase buffer (50 mM HEPES pH 7.5, 50 mM MgCl2, 5 mM EGTA, 0.05% BRIJ-35) and compound at desired concentration prepared in DMSO such that the final DMSO is 1%. […] Typically, assay plates are prepared to 10 μl final volume per sample, adding 2.5 μl of compound at 4× the desired concentration in 4% DMSO (serial dilution of compound provides concentration curve), 5 μl of the desired kinase mixed with Z′-LYTE™ peptide substrate (2× in 2× kinase buffer, final peptide at 2 μM), and 2.5 μl of 4×ATP solution. All kinase except for MAP2K1 were at 10 μM ATP in the kinase reaction, while MAP2K1 was at 100 μM. Samples are mixed and the kinase reaction is incubated 1 hour at room temperature, after which 5 μl of development solution is added and mixed. After incubation for another 1 hour at room temperature, 5 μl of stop reagent is added to each sample and mixed. The fluorescence signals are measured to determine the emission ratio.

[6] = target: T5, Kdr (Homo sapiens, UniProt P35968); test: Z'-Lyte FRET kinase assay (Invitrogen), Kdr; conditions: read-out: IC50, activity toward kinase Kdr
T5 construct: purchased Invitrogen (assay run by Invitrogen)

[7] = target: T6, Jnk2 (Homo sapiens, UniProt P45984); test: AlphaScreen kinase assay, Jnk2; conditions: read-out: IC50, activity toward kinase Jnk2
T6 construct: purchased Roche Protein Expression Group (Indianapolis, IN)
Method in brief: (§1)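 Eight concentrations per compound (1:3 serial dilution of 20 mM DMSO stock) were tested. Read-out: AlphaScreen signal from phospho-antibody acceptor and streptavidin donor beads bound to biotinylated peptide substrate, reduced on kinase inhibition.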

[8] = target: T7, Pyk2 (Homo sapiens, UniProt Q14289); test: AlphaScreen kinase assay, Pyk2; conditions: read-out: IC50, activity toward kinase Pyk2
T7 construct: purchased Upstate Biotechnology

[9] = target: T8, Jnk3 (Homo sapiens, UniProt P53779); test: AlphaScreen kinase assay, Jnk3; conditions: read-out: IC50, activity toward kinase Jnk3
T8 construct: purchased Upstate Biotechnology

[10] = target: T9, Jnk1 (Homo sapiens, UniProt P45983); test: AlphaScreen kinase assay, Jnk1; conditions: read-out: IC50, activity toward kinase Jnk1
T9 construct: purchased Upstate Biotechnology

[11] = target: T10, B-Raf (Homo sapiens, UniProt P15056); test: AlphaScreen kinase assay, B-Raf; conditions: read-out: IC50, activity toward kinase B-Raf
T10 construct: purchased Upstate Biotechnology

[12] = target: T11, c-Raf-1 (Homo sapiens, UniProt P04049); test: AlphaScreen kinase assay, c-Raf-1; conditions: read-out: IC50, activity toward kinase c-Raf-1
T11 construct: purchased Upstate Biotechnology

[13] = target: T12, Fak (Homo sapiens, UniProt Q05397); test: AlphaScreen kinase assay, Fak; conditions: read-out: IC50, activity toward kinase Fak
T12 construct: P1358.pFastBacHtb FAK S411-Q686-X; His6 with pFastBacHTb leader (TEV site) (N); made in house; host or cells: Sf9 (baculovirus)

[14] = target: T13, Btk (Homo sapiens, UniProt Q06187); test: Z'-Lyte FRET kinase assay (Invitrogen), Btk; conditions: read-out: IC50, activity toward kinase Btk
T13 construct: purchased Invitrogen (assay run by Invitrogen)

[15] = target: T14, Fms (Homo sapiens, UniProt P07333); test: AlphaScreen kinase assay, Fms; conditions: read-out: IC50, activity toward kinase Fms
T14 construct: purchased Upstate Biotechnology

[16] = target: T15, Yes (Homo sapiens, UniProt P07947); test: Z'-Lyte FRET kinase assay (Invitrogen), Yes; conditions: read-out: IC50, activity toward kinase Yes
T15 construct: purchased Invitrogen (Carlsbad, Calif.), screening service
Method in brief: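 Serially diluted compound (1% DMSO final) is mixed with kinase plus 2 μM peptide substrate in pH 7.5 HEPES buffer, then ATP is added to 10 μM. After 1 h at room temperature, site-specific protease is added for another hour, reactions are stopped and fluorescence ratio measured.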

[17] = target: T16, FGFR1 (Homo sapiens, UniProt P11362, C488A/C584S); test: AlphaScreen kinase assay, FGFR1; conditions: read-out: IC50, activity toward kinase FGFR
T16 construct: P1351.pET N6 BI-PTP FGFR A458-E765-X C488A, C584S; made in house; host or cells: E. coli (PTP1B co-expressed)

[18] = target: T17, Flt1 (Homo sapiens, UniProt P17948); test: AlphaScreen kinase assay, Flt1; conditions: read-out: IC50, activity toward kinase Flt1
T17 construct: P1826.pETN6 BI-PTP FLT1 M799-D1165-X WT; His6 (N); made in house; host or cells: E. coli (PTP1B co-expressed)
T17 sequence (P17948 with tags, fused parts or gaps): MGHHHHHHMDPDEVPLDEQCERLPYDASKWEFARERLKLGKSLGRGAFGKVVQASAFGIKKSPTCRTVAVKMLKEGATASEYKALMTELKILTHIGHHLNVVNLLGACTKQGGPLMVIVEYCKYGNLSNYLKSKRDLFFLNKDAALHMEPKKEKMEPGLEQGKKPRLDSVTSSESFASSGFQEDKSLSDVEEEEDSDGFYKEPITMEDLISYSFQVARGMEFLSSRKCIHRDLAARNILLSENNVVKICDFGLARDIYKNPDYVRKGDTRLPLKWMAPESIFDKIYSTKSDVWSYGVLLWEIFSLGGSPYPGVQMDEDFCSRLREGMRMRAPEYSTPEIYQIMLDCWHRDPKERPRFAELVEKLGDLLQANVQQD

[19] = target: Akt3 (Homo sapiens, UniProt Q9Y243); test: AlphaScreen kinase assay, Akt3; conditions: read-out: IC50, activity toward kinase Akt3
Method in brief: as §1

[20] = target: T18, B-Raf V600E (Homo sapiens, UniProt P15056, V600E); test: AlphaScreen kinase assay, B-Raf V600E; conditions: read-out: IC50, activity toward kinase B-Raf V600E
T18 construct: P4254. pFastBacBD-CDC37 BRAF D437-K722-X, V600E; His6 with pFastBac HT leader (TEV site) (N); made in house; host or cells: Sf9 (baculovirus; chaperone CDC37 co-expressed)

[21] = target: T19, Src (Homo sapiens, UniProt P12931); test: AlphaScreen kinase assay, Src; conditions: read-out: IC50, activity toward kinase Src
T19 construct: P1144. pET-N6 BI-PTP SRC V86-L536-X; made in house

[22] = target: T20, Zap70 (Homo sapiens, UniProt P43403); test: AlphaScreen kinase assay, Zap70; conditions: read-out: IC50, activity toward kinase Zap70
T20 construct: P1868.pFastBac1 ZAP70 D327-G606 HIS, WT; His7 (HHHHHHH) (C); made in house
T20 sequence (P43403 with tags, fused parts or gaps): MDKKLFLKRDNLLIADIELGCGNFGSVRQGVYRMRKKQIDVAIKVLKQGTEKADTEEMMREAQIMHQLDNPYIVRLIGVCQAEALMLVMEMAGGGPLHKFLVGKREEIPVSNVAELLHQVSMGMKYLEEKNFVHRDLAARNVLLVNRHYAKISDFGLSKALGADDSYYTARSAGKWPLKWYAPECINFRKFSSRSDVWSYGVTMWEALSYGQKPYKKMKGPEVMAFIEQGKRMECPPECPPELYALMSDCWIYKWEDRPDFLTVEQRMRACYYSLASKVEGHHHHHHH
Method in brief: as §1

T1 sequence (P10721 with tags, fused parts or gaps): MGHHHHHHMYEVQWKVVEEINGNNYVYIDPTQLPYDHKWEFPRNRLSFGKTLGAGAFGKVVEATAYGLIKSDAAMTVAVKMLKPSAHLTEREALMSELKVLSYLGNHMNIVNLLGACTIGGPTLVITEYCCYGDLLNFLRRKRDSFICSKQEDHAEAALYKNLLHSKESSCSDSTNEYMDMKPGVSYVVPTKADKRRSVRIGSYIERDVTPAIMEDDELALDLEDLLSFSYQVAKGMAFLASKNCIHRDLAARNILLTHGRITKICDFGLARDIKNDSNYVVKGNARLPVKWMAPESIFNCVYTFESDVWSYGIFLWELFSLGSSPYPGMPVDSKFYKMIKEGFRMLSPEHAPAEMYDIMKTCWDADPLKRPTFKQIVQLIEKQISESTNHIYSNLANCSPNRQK
T5 sequence (P35968 20-1356): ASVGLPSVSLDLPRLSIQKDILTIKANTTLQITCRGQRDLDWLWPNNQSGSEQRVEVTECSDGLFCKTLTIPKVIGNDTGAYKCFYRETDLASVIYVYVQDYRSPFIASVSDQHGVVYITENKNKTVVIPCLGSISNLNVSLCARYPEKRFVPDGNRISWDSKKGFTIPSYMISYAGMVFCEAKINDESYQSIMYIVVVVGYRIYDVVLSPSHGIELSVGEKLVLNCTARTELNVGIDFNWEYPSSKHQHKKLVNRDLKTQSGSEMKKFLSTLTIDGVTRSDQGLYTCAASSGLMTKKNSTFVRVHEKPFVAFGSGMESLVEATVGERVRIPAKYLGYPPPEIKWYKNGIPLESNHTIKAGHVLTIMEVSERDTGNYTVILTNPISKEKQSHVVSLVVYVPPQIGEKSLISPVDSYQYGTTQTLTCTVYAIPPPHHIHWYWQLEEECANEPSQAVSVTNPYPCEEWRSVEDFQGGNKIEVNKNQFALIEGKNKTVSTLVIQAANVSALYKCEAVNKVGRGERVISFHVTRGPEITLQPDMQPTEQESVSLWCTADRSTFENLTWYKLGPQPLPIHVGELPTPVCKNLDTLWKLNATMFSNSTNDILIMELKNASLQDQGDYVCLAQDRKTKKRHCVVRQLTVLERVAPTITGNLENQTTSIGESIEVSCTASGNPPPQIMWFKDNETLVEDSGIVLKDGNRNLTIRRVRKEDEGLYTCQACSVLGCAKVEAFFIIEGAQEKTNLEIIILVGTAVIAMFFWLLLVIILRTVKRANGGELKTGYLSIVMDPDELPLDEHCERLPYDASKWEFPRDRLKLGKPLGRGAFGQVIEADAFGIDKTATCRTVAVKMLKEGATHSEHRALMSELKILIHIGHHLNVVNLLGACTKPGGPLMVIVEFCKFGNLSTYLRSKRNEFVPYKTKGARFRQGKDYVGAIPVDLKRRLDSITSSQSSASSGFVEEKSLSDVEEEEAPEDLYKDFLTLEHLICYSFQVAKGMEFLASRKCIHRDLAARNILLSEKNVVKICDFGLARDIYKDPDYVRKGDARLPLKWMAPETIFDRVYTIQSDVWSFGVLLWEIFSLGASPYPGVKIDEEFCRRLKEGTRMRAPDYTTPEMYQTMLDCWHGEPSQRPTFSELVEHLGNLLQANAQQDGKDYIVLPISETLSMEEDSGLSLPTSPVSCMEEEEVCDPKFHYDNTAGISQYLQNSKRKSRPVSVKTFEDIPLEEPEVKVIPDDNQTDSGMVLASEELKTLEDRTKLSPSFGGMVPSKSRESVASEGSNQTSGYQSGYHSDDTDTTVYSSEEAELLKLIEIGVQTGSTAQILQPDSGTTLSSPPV
T4 sequence (Q04759 whole entry): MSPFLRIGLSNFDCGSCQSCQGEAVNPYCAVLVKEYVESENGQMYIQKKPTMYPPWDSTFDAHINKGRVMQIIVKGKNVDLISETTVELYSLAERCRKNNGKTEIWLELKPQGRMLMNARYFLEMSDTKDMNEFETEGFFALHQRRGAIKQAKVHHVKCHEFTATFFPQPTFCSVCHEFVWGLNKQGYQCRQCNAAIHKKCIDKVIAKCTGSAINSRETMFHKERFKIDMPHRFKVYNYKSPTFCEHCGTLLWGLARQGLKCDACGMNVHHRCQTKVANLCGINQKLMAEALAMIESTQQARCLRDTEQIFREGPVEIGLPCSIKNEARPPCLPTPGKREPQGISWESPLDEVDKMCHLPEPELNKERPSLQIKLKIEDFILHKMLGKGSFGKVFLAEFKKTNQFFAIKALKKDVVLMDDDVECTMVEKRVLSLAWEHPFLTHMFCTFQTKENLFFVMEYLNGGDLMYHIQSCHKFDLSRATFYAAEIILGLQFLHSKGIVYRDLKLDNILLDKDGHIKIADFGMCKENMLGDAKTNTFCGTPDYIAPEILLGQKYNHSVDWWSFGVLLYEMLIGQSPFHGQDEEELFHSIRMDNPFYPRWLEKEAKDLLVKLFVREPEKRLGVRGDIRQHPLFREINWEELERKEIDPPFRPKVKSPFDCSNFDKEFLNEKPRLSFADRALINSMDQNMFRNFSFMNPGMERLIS
T7 sequence (Q14289 whole entry): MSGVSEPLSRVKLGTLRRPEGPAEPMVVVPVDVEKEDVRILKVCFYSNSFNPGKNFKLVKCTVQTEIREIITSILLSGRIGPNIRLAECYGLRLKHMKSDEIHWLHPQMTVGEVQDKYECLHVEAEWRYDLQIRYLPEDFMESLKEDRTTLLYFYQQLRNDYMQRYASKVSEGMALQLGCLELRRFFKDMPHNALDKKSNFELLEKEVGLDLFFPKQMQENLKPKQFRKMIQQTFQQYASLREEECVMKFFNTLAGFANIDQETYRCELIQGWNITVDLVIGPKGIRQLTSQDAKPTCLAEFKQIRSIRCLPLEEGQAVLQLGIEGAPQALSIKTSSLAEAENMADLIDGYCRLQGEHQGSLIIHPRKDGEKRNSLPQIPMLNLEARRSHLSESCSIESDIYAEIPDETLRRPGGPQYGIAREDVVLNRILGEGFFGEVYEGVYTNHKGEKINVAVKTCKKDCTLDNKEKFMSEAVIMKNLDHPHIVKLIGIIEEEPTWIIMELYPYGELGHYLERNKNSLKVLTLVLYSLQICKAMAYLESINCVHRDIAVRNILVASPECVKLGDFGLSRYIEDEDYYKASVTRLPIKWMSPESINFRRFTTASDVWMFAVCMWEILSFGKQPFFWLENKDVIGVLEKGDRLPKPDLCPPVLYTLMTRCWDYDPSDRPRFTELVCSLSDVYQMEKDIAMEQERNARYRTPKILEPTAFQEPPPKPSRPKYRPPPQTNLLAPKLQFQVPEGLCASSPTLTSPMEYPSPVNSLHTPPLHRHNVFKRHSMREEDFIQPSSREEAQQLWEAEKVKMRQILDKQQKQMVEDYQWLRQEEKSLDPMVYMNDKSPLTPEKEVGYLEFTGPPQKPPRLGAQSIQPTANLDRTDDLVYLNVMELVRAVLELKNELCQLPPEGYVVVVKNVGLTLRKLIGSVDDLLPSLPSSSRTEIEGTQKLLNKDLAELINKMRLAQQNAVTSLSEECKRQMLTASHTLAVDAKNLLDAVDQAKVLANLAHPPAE
T18 sequence (P15056 with tags, fused parts or gaps V600E): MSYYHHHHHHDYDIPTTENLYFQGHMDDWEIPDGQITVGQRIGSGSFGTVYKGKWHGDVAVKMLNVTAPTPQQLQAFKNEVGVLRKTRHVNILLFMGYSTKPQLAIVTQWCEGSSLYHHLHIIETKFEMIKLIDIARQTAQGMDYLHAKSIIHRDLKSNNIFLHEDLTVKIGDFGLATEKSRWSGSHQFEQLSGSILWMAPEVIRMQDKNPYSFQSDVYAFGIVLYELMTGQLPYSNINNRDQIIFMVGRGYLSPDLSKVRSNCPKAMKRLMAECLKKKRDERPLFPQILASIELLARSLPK
T16 sequence (P11362 458-765 C488A/C584S): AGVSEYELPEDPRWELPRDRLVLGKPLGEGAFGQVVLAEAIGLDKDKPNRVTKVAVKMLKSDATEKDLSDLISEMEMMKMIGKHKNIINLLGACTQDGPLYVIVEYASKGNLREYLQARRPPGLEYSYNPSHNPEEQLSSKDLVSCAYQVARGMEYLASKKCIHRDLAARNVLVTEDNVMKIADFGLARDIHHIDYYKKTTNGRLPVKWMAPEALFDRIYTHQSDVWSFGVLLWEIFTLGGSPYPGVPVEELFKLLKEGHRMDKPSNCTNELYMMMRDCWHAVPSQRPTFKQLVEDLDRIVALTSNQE
T9 sequence (P45983 whole entry): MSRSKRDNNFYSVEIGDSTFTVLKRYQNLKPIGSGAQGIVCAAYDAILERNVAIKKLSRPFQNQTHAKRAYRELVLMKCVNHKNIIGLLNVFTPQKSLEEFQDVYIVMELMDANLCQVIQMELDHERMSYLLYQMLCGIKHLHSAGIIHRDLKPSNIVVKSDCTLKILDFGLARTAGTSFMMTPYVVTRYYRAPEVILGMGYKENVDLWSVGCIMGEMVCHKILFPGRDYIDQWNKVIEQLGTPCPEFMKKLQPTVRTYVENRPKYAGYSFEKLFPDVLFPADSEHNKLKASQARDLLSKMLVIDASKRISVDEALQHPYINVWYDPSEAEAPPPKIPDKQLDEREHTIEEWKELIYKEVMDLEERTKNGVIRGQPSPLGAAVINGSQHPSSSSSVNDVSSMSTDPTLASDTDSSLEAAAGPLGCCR
T8 sequence (P53779 whole entry): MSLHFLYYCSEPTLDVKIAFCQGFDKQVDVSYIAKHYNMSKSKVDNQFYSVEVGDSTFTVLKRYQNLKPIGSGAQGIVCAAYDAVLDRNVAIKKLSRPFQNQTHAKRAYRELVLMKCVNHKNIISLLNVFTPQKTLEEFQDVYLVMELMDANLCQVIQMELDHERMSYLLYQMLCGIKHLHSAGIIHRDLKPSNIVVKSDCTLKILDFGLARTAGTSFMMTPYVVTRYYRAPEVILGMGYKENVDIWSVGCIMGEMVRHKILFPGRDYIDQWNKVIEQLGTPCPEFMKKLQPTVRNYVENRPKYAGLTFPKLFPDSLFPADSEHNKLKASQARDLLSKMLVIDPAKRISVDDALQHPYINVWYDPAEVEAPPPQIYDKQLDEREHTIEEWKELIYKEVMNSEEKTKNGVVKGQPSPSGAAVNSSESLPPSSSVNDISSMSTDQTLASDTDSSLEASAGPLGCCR

- IC50 [1]: ≤ 10 µM
- IC50 [2]: ≤ 10 µM
- IC50 [3]: ≤ 10 µM
- IC50 [4]: ≤ 10 µM
- IC50 [5]: ≤ 10 µM
- IC50 [6]: ≤ 10 µM
- IC50 [7]: ≤ 10 µM
- IC50 [8]: ≤ 10 µM
SMILES: O=C1Nc2ccccc2/C1=C/c1c[nH]c2ncccc12 [Compound P-0069]

- IC50 [1]: ≤ 10 µM
- IC50 [9]: ≤ 10 µM
- IC50 [10]: ≤ 10 µM
- IC50 [11]: ≤ 10 µM
- IC50 [12]: ≤ 10 µM
- IC50 [13]: ≤ 10 µM
- IC50 [14]: ≤ 10 µM
- IC50 [5]: ≤ 10 µM
- IC50 [15]: ≤ 10 µM
- IC50 [16]: ≤ 10 µM
- IC50 [6]: ≤ 10 µM
- IC50 [17]: ≤ 10 µM
- IC50 [18]: ≤ 10 µM
- IC50 [19]: ≤ 10 µM
- IC50 [8]: ≤ 10 µM
- IC50 [20]: ≤ 10 µM
- IC50 [21]: ≤ 10 µM
SMILES: O=C(c1ccc(O)cc1Cl)c1c[nH]c2ncc(-c3cccs3)cc12 [Compound P-0112]

- IC50 [1]: ≤ 10 µM
- IC50 [4]: ≤ 10 µM
- IC50 [5]: ≤ 10 µM
- IC50 [6]: ≤ 10 µM
- IC50 [22]: ≤ 10 µM
SMILES: CC(=O)Nc1cccc(-c2ccnc3[nH]ccc23)c1 [Compound P-0030]
